Reference: article PMC11096368, “Transcriptomic signature, bioactivity and safety of a non-hepatotoxic analgesic generating AM404 in the midbrain PAG region” (Scientific Reports, 2024)
“Also recorded” adds a separate entry of the source. Where two headings read alike, the source gives them in different places.

Experiments:
CD-1 male mice = conditions: for Mortality by 72 h: oral gavage, n = 10
Protocol: This analysis was critical for robustly comparing their toxic effects, with a particular focus on mortality at equivalent molar concentrations.
CD-1 male mice obtained from Charles River Laboratories underwent a one-week acclimation period. They were housed under a 12-h day/night cycle, with unrestricted access to food and water. Before experimentation, mice were fasted for 15 h. […] Each treatment group consisted of 10 mice. Post-dosing, the mice were monitored at 6-h intervals over 72 h for signs of becoming moribund. An investigator blinded to the treatment groups conducted the moribund state assessment.

[1] = test system: Rat liver and stomach cells; experiment: In vivo mammalian alkaline comet assay; design: species or system rats
Protocol: Male Sprague–Dawley rats were orally administered SRP-001 at 500, 1000, or 2000 mg/kg/dose for two consecutive days at a dose volume of 10 mL/kg/dose (Bioreliance, Rockville, MD USA). The vehicle control was 10% Labrasol, 10% DMSO, and 80% PEG400. The positive control for the Comet assay, ethyl methanesulfonate (EMS), was orally administered at 200 mg/kg/dose for two consecutive days at a dose volume of 10 mL/kg/dose. […] Animals were euthanized 3–4 h after the last dose administration. The liver and glandular stomach were collected and processed for comet evaluation.
The group mean % tail DNA for the vehicle control was within the 95% control limit of the study historical data range, with one animal (#160) exceeding the individual animal 95% control limit but within the minimum/maximum range. Additionally, three animals (#173, 174, and 175) in the mid-dose (1000 mg/kg/dose) group likewise exceeded the individual animal 95% control limit but were within the minimum/maximum range.
The group mean % tail DNA for the vehicle control was within the 95% control limit of the study historical data range, with one animal (#158) exceeding both the individual animal 95% control limit and minimum/maximum ranges. One animal (#171) in the mid-dose (1000 mg/kg/dose) group and one animal (#180) in the high-dose (2000 mg/kg/dose) group exceeded just the 95% control limit range but were within the minimum/maximum range. One animal (#170) in the mid-dose (1000 mg/kg/dose) group and one animal (#179) in the high-dose (2000 mg/kg/dose) group exceeded both the individual animal 95% control limit and minimum/maximum ranges.

beagle dogs = experiment: 7-day repeat-dose oral toxicity and toxicokinetic study, Phase II (non-GLP); type: in vivo
Protocol: In Phase II of this study, 0, 30, 100, or 300 mg/kg/d of SRP-001 was administered once daily for seven consecutive days to 1 Beagle dog/sex/dose (Calvert Labs/Altasciences, Scott Township, PA USA). Mortality/morbidity was observed twice daily and once prior to scheduled sacrifice. Clinical observations were evaluated prior to each dose administration and at approximately 1–3 h post-dose and once prior to scheduled sacrifice on day 8. Body weights were recorded on days 1 and 7, and a fasted body weight was recorded prior to scheduled sacrifice on day 8. Food consumption was recorded daily. Blood for evaluation of hematology, coagulation, and clinical chemistry parameters and urine for urinalysis was collected from all animals prior to treatment initiation and from all Phase II animals prior to scheduled sacrifice on day 8. Blood for toxicokinetic evaluation was collected at selected time points on days 1 and 7. Selected tissues were harvested and weighed at necropsy. No microscopic evaluations were performed. […] The clinical observations corroborated with findings of red discoloration in the duodenum of the control group female, the jejunum of the low-dose male, and the colon of both high-dose dogs.
The reason for this is unclear; however, it may be due to a low sample size (n = 2 per dose group). Half-lives ranged from approximately 1 to 3.5 h and increased with dose and time. […] Based on these observations, SRP-001 was considered to be tolerated at 300 mg/kg when administered once daily for 7 consecutive days. Our toxicokinetic analysis indicates elevated systemic exposures to SRP-001 on Day 1 relative to Day 7. […] A plausible mechanistic explanation for this observed decrease is the induction of metabolic enzymes, likely involving UGT and potentially CYP3A enzymes, as elaborated above and substantiated by previous research. […] The NOAEL exposure parameters align well with the highest SAD dose in the Phase 1 trial, reinforcing the drug's safety profile. The observed PK decrease is not attributed to emesis but likely to enzymatic induction and will be the subject for future investigation.

Compound	Mortality by 72 h (CD-1 male mice; 1984 (ApAP 300 mg/kg))	Mortality by 72 h (CD-1 male mice; 3969 (ApAP 600 mg/kg))	Mortality by 72 h (CD-1 male mice; 5954 (ApAP 900 mg/kg))	Mortality within 72 h (CD-1 male mice; increasing equimolar doses, highest mortality reached) [%]	% tail DNA, glandular stomach ([1]; 500, 1000, 2000 mg/kg/dose)	% tail DNA, liver ([1]; 500, 1000, 2000 mg/kg/dose)	Comet assay result (DNA damage in liver and stomach) ([1]; up to 2000 mg/kg/dose, two consecutive days, oral)	AUC and Cmax levels versus dose (beagle dogs; dog, in vivo)	Body weight, food consumption, hematology, clinical chemistry, coagulation parameters (beagle dogs; dog, in vivo)	Clinical signs (beagle dogs; dog, in vivo)	Dose considered to be tolerated (beagle dogs; once daily for 7 consecutive days) [mg/kg]
CC(=O)Nc1ccc(O)cc1 [ApAP, acetaminophen, reference compound]	1/10	3/10	7/10	70							
CCN(CC)C(=O)c1ccccc1S(=O)(=O)NCC(=O)Nc1ccc(O)cc1 [SRP-001, N,N-diethyl-2-[[2-(4-hydroxyanilino)-2-oxo-ethyl]sulfamoyl]benzamide]					No statistically significant increases	No statistically significant increases	negative; also recorded: negative (non-DNA damaging)	increased in a dose-dependent manner	No SRP-001-related differences	loose or soft feces and emesis	300
